# According to patent US8742158B2, “Protease inhibitors” (TaiMed Biologics, Inc., priority 2006, dated 2014):
# Values joined by “and” are separate entries in the source; they are usually repeats but may differ in a detail not shown here. Equal entries are not always repeated. Where two headings read alike, the source gives them in different places.
# Assays:
# [1] = test system: HIV-1 viral strain NL4-3; assay: Anti-viral assay in vitro (MTT, infected MT-4 cells, six days); assay type: cell-based; settings: Human immunodeficiency virus 1, NL43, MT4, 144 h, read-out: ANTI-HIV-EC50 VIRAL STRAIN NL4-3
# Experimental: Anti-Viral and Cytotoxicity Assays In Vitro
# • To evaluate the EC50 of our compounds, various drug concentrations are incubated with the infected cell for six days and then the metabolic activity of the cells is monitored by the MTT assay. (See A. J. Japour et al., Antimicrobial Agents and Chemotherapy, 37, 1095-1101, 1993 and R. Pauwels et al. Journal of Virological Methods, 20, 309-321, 1988) • We use the laboratory viral strain NL4.3 as wild type virus and the cell line used is MT-4 which is a T-cell line highly sensitive to HIV-1. We also use some WT clinical strains. To address the resistance issue we assay the inhibitors with NL4.3 mutants which are designed to be resistant to specific commercially available inhibitors. • The same MTT assay is used to evaluate the CCIC50 (cell culture of IC50) of our compounds except that the virus is omitted.
# [2] = target: HIV-1 Protease (Human immunodeficiency virus type 1 group M subtype B (isolate HXB2) (HIV-1), UniProt P04585); assay: Enzymatic (FRET fluorometric) assay for determining the inhibition constant (Ki) of compounds targeting the HIV protease; assay type: biochemical; settings: for IC50: read-out: IC50 ENZYME HIV-1 Protease
# From the text: Enzymatic Assay for Determining the Inhibition Constant (Ki) of Synthetic Compounds Targeting the HIV Protease
# This is a fluorometric assay based on the cleavage by protease of a substrate carrying a donor group (EDANS) and an acceptor group (DABCYL) on each side of the cleavage site, interacting together through fluorescence resonance energy transfer (FRET) as described by Matayoshi et al. (Science 247:[…], 1990).
# After calculation of Vo and Vi, the inhibition constant (Ki) of the compound is determined using the equation of Henderson:
# where Vo=the enzyme's initial velocity
# Vi=the enzyme velocity in the presence of the inhibitory compound,
# [I]=inhibitor concentration, [S]=substrate concentration,
# Km=Michaelis-Menten constant and Kiapp=apparent Ki
# Graphs are traced and the Ki determined using GraphPad Prism software v. 3.0.
# [3] = calculated Ki, read-out: KI-CALC ENZYME HIV-1 Protease
# [4] = KIGRAPHIC ENZYME HIV-1 Protease, Ki determined graphically, read-out: […] ENZYME HIV-1 Protease
SMILES,EC50 [1],"Ki [2, 3]",IC50 [2],"Ki [2, 4]"
COC(=O)N[C@H](C(=O)NCCCC[C@H](CO)N(CC(C)C)S(=O)(=O)c1cccc2cccnc12)C(c1ccccc1)c1ccccc1 [EX 27],369 nM,< 3.8 nM,2.55 nM,
CC(C)CN([C@H](CO)CCCCNC(=O)[C@H](Cc1ccccc1Br)NC(=O)c1cnccn1)S(=O)(=O)c1ccc(N)cc1 [EX. 44],60 nM,,0.471 nM,0.318 nM
Cc1cccnc1C(=O)N[C@@H](Cc1ccccc1Br)C(=O)NCCCC[C@@H](CO)N(CC(C)C)S(=O)(=O)c1ccc(N)cc1 [EX 36],204 nM,< 3.8 nM,0.503 nM,0.267 nM
CC(C)CN([C@H](CO)CCCCNC(=O)[C@@H](NS(=O)(=O)c1cccs1)C(c1ccccc1)c1ccccc1)S(=O)(=O)c1ccc(N)cc1 [EX 57],64 nM,< 3.8 nM,0.601 nM,0.541 nM
CC(C)CN([C@H](CO)CCCCNC(=O)C(Cc1ccccc1Br)NC(=O)c1ccncc1)S(=O)(=O)c1ccc(N)cc1 (stereo partly shown) [EX. 42],40 nM,< 3.8 nM,0.618 nM,0.182 nM
Cc1ccc(C(=O)N[C@@H](Cc2ccccc2Br)C(=O)NCCCC[C@@H](CO)N(CC(C)C)S(=O)(=O)c2ccc(N)cc2)cn1 [EX. 40],55 nM,< 3.8 nM,0.567 nM,0.217 nM
Cc1ccccc1C[C@H](NC(=O)c1cccnc1)C(=O)NCCCC[C@@H](CO)N(CC(C)C)S(=O)(=O)c1ccc(N)cc1 [EX 20],148 nM,< 3.8 nM,1.42 nM,
CC(C)CN([C@H](CO)CCCCNC(=O)[C@H](Cc1ccccc1Br)NC(=O)c1cccc(O)n1)S(=O)(=O)c1ccc(N)cc1 [EX 19],99 nM,,0.29 nM,0.27 nM
CC(C)CN([C@H](CO)CCCCNC(=O)[C@@H](NC(=O)N1CCOCC1)C(c1ccccc1)c1ccccc1)S(=O)(=O)c1ccc2c(c1)CCO2 [EX 34],1000 nM,< 3.8 nM,0.963 nM,0.821 nM
Cc1ccc(C(=O)N[C@@H](Cc2ccccc2C)C(=O)NCCCC[C@@H](CO)N(CC(C)C)S(=O)(=O)c2ccc(N)cc2)cn1 [EX 21],198 nM,< 3.8 nM,1.29 nM,
CC(C)CN([C@H](CO)CCCCNC(=O)[C@@H](Cc1ccccc1Br)NC(=O)c1ccc2c(c1)OCO2)S(=O)(=O)c1ccc(N)cc1 [EX. 41],43 nM,,0.336 nM,0.05 nM
Cc1ccc(C(=O)N[C@@H](Cc2ccccc2C)C(=O)NCCCC[C@@H](CO)N(CC(C)C)S(=O)(=O)c2ccc(N)cc2)cc1O [EX 63],165 nM,< 3.8 nM,0.938 nM,
CC(C)CN([C@H](CO)CCCCNC(=O)[C@H](CC1=C(Br)CCC=C1)NC(=O)N1CCOCC1)S(=O)(=O)c1ccc2c(c1)OCCO2 [EX 31],980 nM,< 3.8 nM,3.66 nM,
COC(=O)N[C@H](C(=O)NCCCC[C@H](C(N)=O)N(CC(C)C)S(=O)(=O)c1ccc(N)cc1)C(c1ccccc1)c1ccccc1 [EX. 7],30 nM,,0.652 nM and 0.507 nM,0.049 nM and 0.042 nM
CC(C)CN([C@H](CO)CCCCNC(=O)[C@H](Cc1ccccc1Br)NC(=O)N1CCOCC1)S(=O)(=O)c1ccc2c(c1)CCO2 [EX 17],665 nM,< 3.8 nM,0.599 nM,1 nM and 1.03 nM
COC(=O)N[C@H](C(=O)NCCCC[C@H](CO)N(CC(C)C)S(=O)(=O)c1ccc2c(c1)N(C)CCO2)C(c1ccccc1)c1ccccc1 [EX 35],> 50000 nM,< 3.8 nM,3.01 nM,
Cc1ccc(C(=O)N[C@@H](Cc2ccccc2Br)C(=O)NCCCC[C@@H](CO)N(CC(C)C)S(=O)(=O)c2ccc(N)cc2)cc1O [EX 37],60 nM,< 3.8 nM,0.683 nM,0.224 nM

SMILES,EC50 [1],"Ki [2, 3]",IC50 [2],"Ki [2, 4]"
Cc1ccc(C(=O)N[C@@H](CC2CCCCC2)C(=O)NCCCC[C@@H](CO)N(CC(C)C)S(=O)(=O)c2ccc(N)cc2)cn1 [EX 26],> 5000 nM,< 3.8 nM,3.31 nM,
Cc1ncccc1C(=O)N[C@@H](Cc1ccccc1Br)C(=O)NCCCC[C@@H](CO)N(CC(C)C)S(=O)(=O)c1ccc(N)cc1 [EX. 39],70 nM,< 3.8 nM,0.58 nM,0.183 nM
COC(=O)N[C@@H](Cc1ccccc1F)C(=O)NCCCC[C@H](CO)N(CC(C)C)S(=O)(=O)c1ccc2c(c1)CCO2 [EX 13],2140 nM,9.2 nM,,
CC(C)CN([C@H](CO)CCCCNC(=O)[C@H](Cc1ccccc1Cl)NC(=O)c1ccncc1)S(=O)(=O)c1ccc(N)cc1 [EX 29],144 nM,< 3.8 nM,3.81 nM,
COC(=O)N[C@@H](CC1CCCCC1)C(=O)NCCCC[C@@H](CO)N(CC(C)C)S(=O)(=O)c1ccc(N)cc1 [EX 24],> 5000 nM,5.3 nM,5.21 nM,
Cc1c(O)cccc1C(=O)N[C@@H](Cc1ccccc1Br)C(=O)NCCCC[C@@H](CO)N(CC(C)C)S(=O)(=O)c1ccc(N)cc1 [EX 18],136 nM,,0.6 nM,0.26 nM
COC(=O)N[C@@H](Cc1ccccc1F)C(=O)NCCCC[C@H](CO)N(CC(C)C)S(=O)(=O)c1ccc2c(c1)OCCN2C [EX 14],1830 nM,75.7 nM,,
CC(C)CN([C@H](CO)CCCCNC(=O)[C@H](Cc1ccc2ccccc2c1)NCc1ccccn1)S(=O)(=O)c1ccc(N)cc1 [EX 56],> 50000 nM,,5.9 nM,
COC(=O)N[C@H](C(=O)NCCCC[C@@H](CO)N(Cc1cccnc1)S(=O)(=O)c1ccc(N)cc1)C(c1ccccc1)c1ccccc1 [EX. 33],196 nM,< 3.8 nM,1.01 nM,
CC(C)CN([C@H](CO)CCCCNC(=O)[C@@H](NC(=O)NCc1ccncc1)C(c1ccccc1)c1ccccc1)S(=O)(=O)c1ccc(N)cc1 [EX 62],170 nM,< 3.8 nM,0.51 nM,0.443 nM
CC(C)CN([C@H](CO)CCCCNC(=O)[C@H](Cc1ccccc1Br)NC(=O)OCc1ccncc1)S(=O)(=O)c1ccc(N)cc1 [EX 38],248 nM,,0.92 nM,0.27 nM
Cc1ncccc1C(=O)N[C@@H](Cc1ccccc1Cl)C(=O)NCCCC[C@@H](CO)N(CC(C)C)S(=O)(=O)c1ccc(N)cc1 [EX 30],422 nM,< 3.8 nM,2.15 nM,
Cc1ccccc1C[C@H](NC(=O)c1cccc(C)c1O)C(=O)NCCCC[C@@H](CO)N(CC(C)C)S(=O)(=O)c1ccc(N)cc1 [EX 23],> 50000 nM,< 3.8 nM,4.12 nM,
CC(C)CN([C@H](CO)CCCCNC(=O)[C@H](CC1CCCCC1)NC(=O)c1cccnc1)S(=O)(=O)c1ccc(N)cc1 [EX 25],> 5000 nM,< 3.8 nM,2.88 nM,
CC(=O)N[C@H](C(=O)NCCCCC(C(N)=O)N(CC(C)C)S(=O)(=O)c1ccc(N)cc1)C(c1ccccc1)c1ccccc1 (stereo partly shown) [EX. 8],238 nM,,,
Cc1ccccc1C[C@H](NC(=O)c1ccncc1)C(=O)NCCCC[C@@H](CO)N(CC(C)C)S(=O)(=O)c1ccc(N)cc1 [EX 22],158 nM,< 3.8 nM,1.35 nM,
